Read-outs that look alike come from different tables or passages of the source.
Assays:
[1] = target: T1, TxtE (Streptomyces scabiei, UniProt C9ZDC6); format: binding, Streptomyces scabies; conditions: TxtE in E. coli cell lysate 1.9 – 2.8 μM, substrate 250–500 μM, 15 min, pH 8
[2] = target: T1, TxtE; test: biochemical; format: binding, Streptomyces scabies
[3] = target: T1, TxtE; conditions: read-out: previously reported Kd; TxtE with L-tryptophan; cited from earlier work

## N[C@@H](Cc1c[nH]c2ccccc12)C(=O)O [Substrate 1, L-tryptophan]
[1]
  Spectral Shift: type I
[2]
  Kd: 39 µM
[3]
  Kd: 44 to 60 µM

From publication PMC4260628 (Chembiochem : a European journal of chemical biology, 2014)
